From BindingDB's records for doi:10.1016/s0960-894x(01)00591-1 (University of Maryland, 2001)

Target: Guanine deaminase (Oryctolagus cuniculus)
Experiment: Binding affinity against Guanine deaminase (guanase) from rabbit liver was determined

- Ki: 29.7 µM
SMILES: N=c1nc(N)nc(N)c2c1N(COCCO)CN2
